Data: patent publication US5994340A, “Azetidinone derivatives as β-lactamase inhibitors” (SynPhar Laboratories, Inc., priority 1997, dated 1999)
Structures can show the parent of a compound that is named as a salt. One block for each molecule: values may come before it.

What was measured:
[1] = molecular target: cephalosporinase from P. aeruginosa (Pseudomonas aeruginosa, UniProt P24735); test: β-Lactamase inhibitory activity, spectrophotometric rate assay at 490 nm with nitrocefin as substrate; assay type: biochemical
Protocol: The inhibitory activities of present compounds (β-lactamase inhibitors) against cephalosporinase from P. aeruginosa was measured by spectrophotometric rate assay using 490 nm and using nitrocefin as a substrate (J. Antimicrob. Chemother., vol. 28, pp 775-776, 1991).

[2] = test system: β-lactamase; conditions: suggested by several publications; cited from earlier work
[3] = test system: P. aeruginosa 46220 DR-2-1; test: microbe, parasite or virus in culture; assay type: cell-based; conditions: Pseudomonas aeruginosa, 46220DR21, 18 h, read-out: MIC of ceftazidime alone
Protocol: (§1) […]. After incubation in Mueller-Hinton Broth (Difco) at 37° C. for 18 h, the bacterial suspension was diluted and about 10^5 CFU/ml was applied to the drug-containing Mueller-Hinton Broth in each well of 96 well plate. The MICs were recorded after 18 h of incubation at 37° C. on the lowest combinations of drug that inhibited visible growth of bacteria.

[4] = test system: P. aeruginosa PAO 303 carb-4; test: microbe, parasite or virus in culture; assay type: cell-based; conditions: Pseudomonas aeruginosa, PAO303CARB4, 18 h, read-out: MIC of ceftazidime alone
Protocol: as §1

[5] = test system: E. cloacae MNH-2; test: MIC of ceftazidime, microbroth dilution; assay type: cell-based; conditions: Enterobacter cloacae, MNH2, 18 h, read-out: MIC of ceftazidime alone
Protocol: (§2) After incubation in Mueller-Hinton Broth (Difco) at 37° C. for 18 h, the bacterial suspension was diluted and about 10^5 CFU/ml was applied to the drug-containing Mueller-Hinton Broth in each well of 96 well plate. The MICs were recorded after 18 h of incubation at 37° C. on the lowest combinations of drug that inhibited visible growth of bacteria.

[6] = test system: E. cloacae 40054; test: MIC of ceftazidime, microbroth dilution; assay type: cell-based; conditions: Enterobacter cloacae, 40054, 18 h, read-out: MIC of ceftazidime alone
Protocol: as §2

[7] = test system: P. aeruginosa AU-10; test: MIC of ceftazidime, microbroth dilution; assay type: cell-based; conditions: Pseudomonas aeruginosa, AU10; ceftazidime alone, 18 h
Protocol: as §2, with “The MICs of the antibiotics (e.g., ceftazidime) alone, the MICs of ceftazidime in combination with reference compounds particularly […] (Ref. compd. I) and the MICs of the β-lactamase inhibitors (10 μg/ml) of the present invention in combination with ceftazidime were determined with the same β-lactamase producing bacteria. After” for “After”

[8] = test system: P. aeruginosa CT-122; test: MIC of ceftazidime, microbroth dilution; assay type: cell-based; conditions: Pseudomonas aeruginosa, CT122; ceftazidime alone, 18 h
Protocol: as §2, with “The MICs of the antibiotics (e.g., ceftazidime) alone, the MICs of ceftazidime in combination with reference compounds particularly […] (Ref. compd. I) and the MICs of the β-lactamase inhibitors (10 μg/ml) of the present invention in combination with ceftazidime were determined with the same β-lactamase producing bacteria. After” for “After”

[9] = test system: P. aeruginosa CT-137; test: MIC of ceftazidime, microbroth dilution; assay type: cell-based; conditions: Pseudomonas aeruginosa, CT137; ceftazidime alone, 18 h
Protocol: as §2, with “The MICs of the antibiotics (e.g., ceftazidime) alone, the MICs of ceftazidime in combination with reference compounds particularly […] (Ref. compd. I) and the MICs of the β-lactamase inhibitors (10 μg/ml) of the present invention in combination with ceftazidime were determined with the same β-lactamase producing bacteria. After” for “After”

[10] = test system: M. morganii 36010; test: MIC of ceftazidime, microbroth dilution; assay type: cell-based; conditions: Morganella morganii, ceftazidime alone, 18 h
Protocol: as §2, with “The MICs of the antibiotics (e.g., ceftazidime) alone, the MICs of ceftazidime in combination with reference compounds particularly […] (Ref. compd. I) and the MICs of the β-lactamase inhibitors (10 μg/ml) of the present invention in combination with ceftazidime were determined with the same β-lactamase producing bacteria. After” for “After”

[11] = test system: P. aeruginosa M2297; test: MIC of ceftazidime, microbroth dilution; assay type: cell-based; conditions: Pseudomonas aeruginosa, ceftazidime alone, 18 h
Protocol: as §2, with “The MICs of the antibiotics (e.g., ceftazidime) alone, the MICs of ceftazidime in combination with reference compounds particularly […] (Ref. compd. I) and the MICs of the β-lactamase inhibitors (10 μg/ml) of the present invention in combination with ceftazidime were determined with the same β-lactamase producing bacteria. After” for “After”

[12] = test system: P. aeruginosa AU-5; test: MIC of ceftazidime, microbroth dilution; assay type: cell-based; conditions: Pseudomonas aeruginosa, AU5; ceftazidime alone, 18 h
Protocol: as §2, with “The MICs of the antibiotics (e.g., ceftazidime) alone, the MICs of ceftazidime in combination with reference compounds particularly […] (Ref. compd. I) and the MICs of the β-lactamase inhibitors (10 μg/ml) of the present invention in combination with ceftazidime were determined with the same β-lactamase producing bacteria. After” for “After”

[13] = test system: P. aeruginosa 46017; test: MIC of ceftazidime, microbroth dilution; assay type: cell-based; conditions: Pseudomonas aeruginosa, ceftazidime alone, 18 h
Protocol: as §2, with “The MICs of the antibiotics (e.g., ceftazidime) alone, the MICs of ceftazidime in combination with reference compounds particularly […] (Ref. compd. I) and the MICs of the β-lactamase inhibitors (10 μg/ml) of the present invention in combination with ceftazidime were determined with the same β-lactamase producing bacteria. After” for “After”

[14] = test system: P. aeruginosa CT-144; test: MIC of ceftazidime, microbroth dilution; assay type: cell-based; conditions: Pseudomonas aeruginosa, CT144; ceftazidime alone, 18 h
Protocol: as §2, with “The MICs of the antibiotics (e.g., ceftazidime) alone, the MICs of ceftazidime in combination with reference compounds particularly […] (Ref. compd. I) and the MICs of the β-lactamase inhibitors (10 μg/ml) of the present invention in combination with ceftazidime were determined with the same β-lactamase producing bacteria. After” for “After”

[15] = test system: P. aeruginosa sp 2439 Wt.; test: MIC of ceftazidime, microbroth dilution; assay type: cell-based; conditions: Pseudomonas aeruginosa, SP2439WT.; ceftazidime alone, 18 h
Protocol: as §2, with “The MICs of the antibiotics (e.g., ceftazidime) alone, the MICs of ceftazidime in combination with reference compounds particularly […] (Ref. compd. I) and the MICs of the β-lactamase inhibitors (10 μg/ml) of the present invention in combination with ceftazidime were determined with the same β-lactamase producing bacteria. After” for “After”

[16] = test system: P. aeruginosa 46220 DR-2; test: MIC of ceftazidime, microbroth dilution; assay type: cell-based; conditions: Pseudomonas aeruginosa, 46220DR2; ceftazidime alone, 18 h
Protocol: as §2, with “The MICs of the antibiotics (e.g., ceftazidime) alone, the MICs of ceftazidime in combination with reference compounds particularly […] (Ref. compd. I) and the MICs of the β-lactamase inhibitors (10 μg/ml) of the present invention in combination with ceftazidime were determined with the same β-lactamase producing bacteria. After” for “After”

[17] = test system: P. aeruginosa L46004; test: MIC of ceftazidime, microbroth dilution; assay type: cell-based; conditions: Pseudomonas aeruginosa, L46004, 18 h, read-out: MIC of ceftazidime alone
Protocol: as §1

[18] = test system: M. morganii 36014; test: MIC of ceftazidime, microbroth dilution; assay type: cell-based; conditions: Morganella morganii, 36014, 18 h, read-out: MIC of ceftazidime alone
Protocol: as §1

[19] = test system: M. morganii 36030; test: MIC of ceftazidime, microbroth dilution; assay type: cell-based; conditions: Morganella morganii, 36030, 18 h, read-out: MIC of ceftazidime alone
Protocol: as §1

[20] = test system: P. aeruginosa 46012; test: MIC of ceftazidime, microbroth dilution; assay type: cell-based; conditions: Pseudomonas aeruginosa, 46012, 18 h, read-out: MIC of ceftazidime alone
Protocol: as §1

[21] = test system: C. freundii CT-76; test: MIC of ceftazidime, microbroth dilution; assay type: cell-based; conditions: Citrobacter freundii, CT76, 18 h, read-out: MIC of ceftazidime alone
Protocol: as §1

[22] = test system: P. aeruginosa M 1405; test: MIC of ceftazidime, microbroth dilution; assay type: cell-based; conditions: Pseudomonas aeruginosa, M1405, 18 h, read-out: MIC of ceftazidime alone
Protocol: as §1

[23] = test system: C. freundii 44032; test: MIC of ceftazidime, microbroth dilution; assay type: cell-based; conditions: Citrobacter freundii, 44032, 18 h, read-out: MIC of ceftazidime alone
Protocol: as §1

[24] = test system: E. aerogenes S-95; test: MIC of ceftazidime, microbroth dilution; assay type: cell-based; conditions: Klebsiella aerogenes, S95, 18 h, read-out: MIC of ceftazidime alone
Protocol: as §1

[25] = test system: P. aeruginosa AU-1; test: MIC of ceftazidime, microbroth dilution; assay type: cell-based; conditions: Pseudomonas aeruginosa, AU1, 18 h, read-out: MIC of ceftazidime alone
Protocol: as §1

[26] = test system: P. aeruginosa AU-8; test: MIC of ceftazidime, microbroth dilution; assay type: cell-based; conditions: Pseudomonas aeruginosa, AU8, 18 h, read-out: MIC of ceftazidime alone
Protocol: as §1

[27] = test system: E. aerogenes 41006; test: MIC of ceftazidime, microbroth dilution; assay type: cell-based; conditions: Klebsiella aerogenes, 41006, 18 h, read-out: MIC of ceftazidime alone
Protocol: as §1

[28] = test system: E. cloacae P 99; test: microbe, parasite or virus in culture; assay type: cell-based; conditions: Enterobacter cloacae, P99, 18 h, read-out: MIC of ceftazidime alone
Protocol: as §2

Sequence of cephalosporinase from P. aeruginosa (P24735 27-397): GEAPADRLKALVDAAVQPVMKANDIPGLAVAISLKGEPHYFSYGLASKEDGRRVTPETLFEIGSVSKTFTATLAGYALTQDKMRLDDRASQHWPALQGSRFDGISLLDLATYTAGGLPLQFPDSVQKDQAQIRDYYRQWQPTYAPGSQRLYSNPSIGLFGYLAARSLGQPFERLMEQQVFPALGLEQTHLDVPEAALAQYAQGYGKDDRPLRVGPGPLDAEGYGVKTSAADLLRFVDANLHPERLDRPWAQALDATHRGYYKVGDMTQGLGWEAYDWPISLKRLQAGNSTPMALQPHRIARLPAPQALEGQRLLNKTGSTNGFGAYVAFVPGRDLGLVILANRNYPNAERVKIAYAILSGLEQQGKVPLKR

- IC50 [1]: 20 nM
Structure (SMILES): C[C@H]1[C@H](NC(=O)/C(=N/OCCN)c2cccs2)C(=O)N1S(=O)(=O)O [Compound 1]

- IC50 [1]: 20 nM
Structure (SMILES): C[C@H]1[C@H](NC(=O)/C(=N/OCCCN)c2cccs2)C(=O)N1S(=O)(=O)O [Compound 2]

- IC50 [1]: 400 nM
Structure (SMILES): C[C@H]1[C@H](NC(=O)/C(=N/OC(CN)CN)c2cccs2)C(=O)N1S(=O)(=O)O [Compound 3, (3S)-trans-3-[(E)-2-(2-Thienyl)-2-{1,3-diamino-prop-2-oxyimino}acetamido]-4-methyl-2-oxoazetidine-1-sulfonic acid, triflate salt]

- IC50 [1]: 65 nM
Structure (SMILES): C[C@H]1[C@H](NC(=O)/C(=N/OCC(N)CN)c2cccs2)C(=O)N1S(=O)(=O)O (some centres unmarked) [Compound 4]

- IC50 [1]: 100 nM
Structure (SMILES): C[C@H]1[C@H](NC(=O)/C(=N/OC[C@@H](N)CCN)c2cccs2)C(=O)N1S(=O)(=O)O [Compound 5]

- IC50 [1]: 100 nM
Structure (SMILES): C[C@H]1[C@H](NC(=O)/C(=N/OC[C@H](N)CCN)c2cccs2)C(=O)N1S(=O)(=O)O [Compound 6]

- IC50 [1]: 80 nM
Structure (SMILES): C[C@H]1[C@H](NC(=O)/C(=N/OCCNCCN)c2cccs2)C(=O)N1S(=O)(=O)O [Compound 7]

- IC50 [1]: 300 nM
Structure (SMILES): C[C@H]1[C@H](NC(=O)/C(=N/OC(CN)CO)c2cccs2)C(=O)N1S(=O)(=O)O (some centres unmarked) [Compound 8]

- IC50 [1]: 80 nM
Structure (SMILES): C[C@H]1[C@H](NC(=O)/C(=N/OCC(N)CO)c2cccs2)C(=O)N1S(=O)(=O)O (stereo partly drawn) [Compound 9, (3S)-trans-3-[(E)-2-(2-Thienyl)-2-{1-hydroxy-2-amino-prop-3-oxyimino}acetamido]-4-methyl-2-oxoazetidine-1-sulfonic acid, inner salt]

- IC50 [1]: 80 nM
Structure (SMILES): CC(N)CO/N=C(/C(=O)N[C@@H]1C(=O)N(S(=O)(=O)O)[C@H]1C)c1cccs1 (stereo partly drawn) [Compound 10, (3S)-trans-3-[(E)-2-(2-Thienyl-2-{(2-amino)-prop-1-oxyimino}acetamido]-4-methyl-2-oxoazetidine-1-sulfonic acid, inner salt]

- IC50 [1]: 200 nM
Structure (SMILES): CC(CN)O/N=C(/C(=O)N[C@@H]1C(=O)N(S(=O)(=O)O)[C@H]1C)c1cccs1 (some centres unmarked) [Compound 11]

- IC50 [1]: 1090 nM
Structure (SMILES): C[C@H]1[C@H](NC(=O)/C(=N/OC(CN)CNC(=N)N)c2cccs2)C(=O)N1S(=O)(=O)O (some centres unmarked) [Compound 12]

Structure (SMILES): C[C@H]1[C@H](NC(=O)/C(=N\OC(C)(C)C(=O)O)c2csc(N)n2)C(=O)N1S(=O)(=O)O [Reference Compound I, Aztreonam]
- IC50 [1]: 130 nM
- β-lactamase inhibitory properties [2]: possesses β-lactamase inhibitory properties

- IC50 [1]: 800 nM
Structure (SMILES): C[C@H]1[C@H](NC(=O)/C(=N/OCCN)c2csc(N)n2)C(=O)N1S(=O)(=O)O [Reference Compound II]

Structure (SMILES): CC(C)(O/N=C(\C(=O)N[C@@H]1C(=O)N2C(C(=O)[O-])=C(C[n+]3ccccc3)CS[C@H]12)c1csc(N)n1)C(=O)O [ceftazidime]
- MIC [3]: > 32 µg/mL
- MIC [4]: 32 µg/mL
- MIC [5]: > 32 µg/mL
- MIC [6]: > 32 µg/mL
- MIC [7]: > 32 µg/mL
- MIC [8]: 16 µg/mL
- MIC [9]: 8 µg/mL
- MIC [10]: > 32 µg/mL
- MIC [11]: > 32 µg/mL
- MIC [12]: > 32 µg/mL
- MIC [13]: > 32 µg/mL
- MIC [14]: 32 µg/mL
- MIC [15]: > 32 µg/mL
- MIC [16]: 16 µg/mL
- MIC [17]: > 32 µg/mL
- MIC [18]: > 32 µg/mL
- MIC [19]: > 32 µg/mL
- MIC [20]: > 32 µg/mL
- MIC [21]: > 32 µg/mL
- MIC [22]: > 32 µg/mL
- MIC [23]: > 32 µg/mL
- MIC [24]: > 32 µg/mL
- MIC [25]: > 32 µg/mL
- MIC [26]: > 32 µg/mL
- MIC [27]: > 32 µg/mL
- MIC [28]: > 32 µg/mL
